From patent US20260317319A1, “NOVEL ERGOLINES AND METHODS OF TREATING MOOD DISORDERS” (Gilgamesh Pharma Inc., priority 2023, published 2026)
Like-named read-outs stand apart in the source and are kept apart here.

How the values were obtained:
5-HT1B receptor = target: T1, 5-HT1B receptor (Homo sapiens, UniProt P28222); assay: cAMP accumulation functional assay at 5-HT1B; format: cell-based; settings: agonist, cAMP accumulation; for Emax: max dose, read-out: 5-HT1B % Act @ Max Dose
T1 construct: expressed in transfected cells
T1 sequence (P28222 whole entry): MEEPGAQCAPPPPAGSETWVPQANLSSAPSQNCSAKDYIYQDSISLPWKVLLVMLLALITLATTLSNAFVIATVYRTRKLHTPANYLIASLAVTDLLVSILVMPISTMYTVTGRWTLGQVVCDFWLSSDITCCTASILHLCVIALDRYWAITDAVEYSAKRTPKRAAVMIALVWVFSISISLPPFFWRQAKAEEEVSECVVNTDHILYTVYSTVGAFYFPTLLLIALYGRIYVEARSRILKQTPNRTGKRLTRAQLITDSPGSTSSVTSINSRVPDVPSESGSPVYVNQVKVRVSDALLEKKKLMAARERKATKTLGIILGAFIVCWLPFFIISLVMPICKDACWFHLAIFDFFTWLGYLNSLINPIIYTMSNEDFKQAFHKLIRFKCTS
In short: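 Agonist activity measured as cAMP accumulation in cells stably transfected with human 5-HT1B. Cells incubated 60 min at RT, then detection reagent added for a further 60 min at RT before plate reading.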

in vitro [1] = format: in vitro ADME, mouse; settings: for microsomal CLint: read-out: Intrinsic clearance (Clint); for half-life: read-out: half-life (t1/2)
Excerpt: MLM Stability Pooled MLM from male CD-1 mice (BIOIVT M00501) were used.

5-HT1A receptor = target: T2, 5-HT1A receptor (Homo sapiens, UniProt P08908); assay: cell-based; settings: agonist, Ca2+ flux; for Emax: CHO, CHO cells with Gα15, max dose, read-out: 5-HT1A % Act @ Max Dose; for EC50: CHO cells with Gα15
T2 construct: expressed in transfected cells; host or cells: CHO cells, stably transfected
T2 sequence (P08908 1-422): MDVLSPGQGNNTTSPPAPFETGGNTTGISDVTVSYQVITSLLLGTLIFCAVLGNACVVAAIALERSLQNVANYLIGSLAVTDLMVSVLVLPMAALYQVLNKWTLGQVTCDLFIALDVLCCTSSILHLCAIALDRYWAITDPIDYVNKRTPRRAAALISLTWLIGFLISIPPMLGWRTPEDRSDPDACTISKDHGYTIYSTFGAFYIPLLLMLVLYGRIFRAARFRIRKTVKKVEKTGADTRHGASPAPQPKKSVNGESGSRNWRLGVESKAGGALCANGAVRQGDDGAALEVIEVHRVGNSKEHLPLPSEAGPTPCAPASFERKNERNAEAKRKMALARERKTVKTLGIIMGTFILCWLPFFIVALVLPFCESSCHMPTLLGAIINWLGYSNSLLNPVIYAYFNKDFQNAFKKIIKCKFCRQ
In short: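 Using HEK293 lines for the 5-HT2 subtypes and Gα15-coupled CHO cells for 5-HT1A, compounds were tested as agonists. Fluorescent Ca2+ signal followed dye loading (Fluo-4 Direct, 2.5 mM final probenecid, 50 min, 37 °C).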

5-HT2B receptor = target: T3, 5-HT2B receptor (Homo sapiens, UniProt P41595); assay: cell-based; format: cell-based; settings: Ca2+ flux; for Emax: HEK293, agonist, read-out: 5-HT2B % Act @ Max Dose; for EC50: HEK293
T3 construct: expressed in transfected cells; host or cells: HEK293, stably transfected
T3 sequence (P41595 whole entry): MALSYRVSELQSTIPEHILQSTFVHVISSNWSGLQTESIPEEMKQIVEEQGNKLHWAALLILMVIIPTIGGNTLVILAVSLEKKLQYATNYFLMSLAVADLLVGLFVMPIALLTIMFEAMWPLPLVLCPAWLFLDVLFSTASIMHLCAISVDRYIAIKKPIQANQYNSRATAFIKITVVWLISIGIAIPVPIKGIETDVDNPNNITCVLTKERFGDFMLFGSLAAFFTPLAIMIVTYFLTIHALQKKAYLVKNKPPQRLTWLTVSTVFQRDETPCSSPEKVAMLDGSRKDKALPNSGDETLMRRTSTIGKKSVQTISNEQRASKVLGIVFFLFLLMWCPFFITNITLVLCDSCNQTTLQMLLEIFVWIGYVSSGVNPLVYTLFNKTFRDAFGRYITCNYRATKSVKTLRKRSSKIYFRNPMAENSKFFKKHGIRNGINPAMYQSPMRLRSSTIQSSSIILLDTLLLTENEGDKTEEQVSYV
In short: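 FLIPR Tetra fluorescence read-out of calcium flux after compound addition. Receptor-expressing stable lines were used (HEK293 for 2A/2B; CHO with Gα15 for 1A), dye-loaded with Fluo-4 Direct and 2.5 mM final probenecid, 50 min at 37 °C.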

in vitro [2] = format: in vitro ADME, human; settings: for microsomal CLint: read-out: Intrinsic clearance (Clint); for half-life: read-out: half-life (t1/2)
in vitro [3] = format: in vitro ADME, rat; settings: for microsomal CLint: read-out: Intrinsic clearance (Clint); for half-life: read-out: half-life (t1/2)
Excerpt: RLM Stability Pooled RLM from male Sprague-Dawley rats (Xenotech R1000) were used.

5-HT2A receptor [4] = target: T4, 5-HT2A receptor (Homo sapiens, UniProt P28223); assay: cell-based; format: cell-based; set-up: expressed in transfected cells; host or cells: HEK293, stably transfected; settings: Ca2+ flux; for Emax: HEK293, agonist, HEK293, max dose, read-out: 5-HT2A % Act @ Max Dose; for EC50: agonist, HEK293
T4 sequence (P28223 whole entry): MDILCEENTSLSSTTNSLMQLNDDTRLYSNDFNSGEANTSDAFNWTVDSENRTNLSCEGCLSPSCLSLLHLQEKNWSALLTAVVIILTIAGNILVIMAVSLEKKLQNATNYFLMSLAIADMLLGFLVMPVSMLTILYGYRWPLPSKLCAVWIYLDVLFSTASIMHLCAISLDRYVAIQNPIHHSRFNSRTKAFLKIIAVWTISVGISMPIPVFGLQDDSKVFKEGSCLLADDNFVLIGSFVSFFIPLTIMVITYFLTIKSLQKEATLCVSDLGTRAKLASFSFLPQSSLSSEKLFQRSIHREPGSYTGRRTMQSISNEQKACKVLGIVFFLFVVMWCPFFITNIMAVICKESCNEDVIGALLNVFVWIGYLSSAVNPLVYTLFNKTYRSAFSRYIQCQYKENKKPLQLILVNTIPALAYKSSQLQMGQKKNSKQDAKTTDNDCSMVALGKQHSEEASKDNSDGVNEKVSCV
In short: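 Receptor agonism was assessed as intracellular calcium mobilization in stably transfected cells, with CHO cells additionally carrying Gα15 for the 5-HT1A readout. Calcium was monitored with Fluo-4 Direct dye.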

5-HT2A receptor [5] = target: T4, 5-HT2A receptor; assay: cell-based; format: cell-based; settings: beta-arrestin recruitment; for Emax: read-out: 5-HT2A Arrestin % Act @ Max Dose; for EC50: PathHunter, read-out: 5-HT2A Arrestin EC50
In short: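 PathHunter β-arrestin recruitment (enzyme fragment complementation): 5-HT2A fused to ProLink donor in cells co-expressing β-arrestin–β-galactosidase acceptor, seeded and held at 37° C before testing. Chemiluminescent read-out; agonist % activity = (sample RLU − vehicle)/(max control ligand − vehicle) × 100.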

[6] = MLM (male CD-1) 0.50 mg/mL, NADPH 1 mM, 1 μM compound, pH 7.4, 37° C., 60 min
[7] = HLM 0.50 mg/mL, NADPH 1 mM, 1 μM compound, pH 7.4, 37° C., 60 min
[8] = RLM (male Sprague-Dawley) 0.50 mg/mL, NADPH 1 mM, 1 μM compound, pH 7.4, 37° C., 60 min
[9] = human, microsomes, HLM 0.50 mg/mL, NADPH 1 mM, 1 μM compound, pH 7.4, 37° C., 60 min
[10] = mouse, microsomes, MLM (male CD-1) 0.50 mg/mL, NADPH 1 mM, 1 μM compound, pH 7.4, 37° C., 60 min
[11] = rat, microsomes, RLM (male Sprague-Dawley) 0.50 mg/mL, NADPH 1 mM, 1 μM compound, pH 7.4, 37° C., 60 min

| Compound | Emax (5-HT1B receptor) | stability in MLM (in vitro [1]) | half-life (t1/2) (in vitro [1]; [6]) | Emax (5-HT1A receptor) | Emax (5-HT2B receptor; HEK293, max dose) | stability in HLM (in vitro [2]) | half-life (t1/2) (in vitro [2]; [7]) | stability in RLM (in vitro [3]) | Emax (5-HT2A receptor [4]) | Emax (5-HT2A receptor [5]; agonist, max dose) | EC50 (5-HT1B receptor) | EC50 (5-HT1A receptor) | EC50 (5-HT2B receptor; agonist) | microsomal CLint (in vitro [2]; [9]) | half-life (in vitro [2]; [9]) | EC50 (5-HT2A receptor [4]) | microsomal CLint (in vitro [1]; [10]) | half-life (in vitro [1]; [10]) | microsomal CLint (in vitro [3]; [11]) | half-life (in vitro [3]; [11]) | also measured |
| --- | --- | --- | --- | --- | --- | --- | --- | --- | --- | --- | --- | --- | --- | --- | --- | --- | --- | --- | --- | --- | --- |
| CCCN1C[C@H](C(=O)N(CC)CC)C=C2c3cccc4[nH]cc(c34)C[C@H]21 [Compound 1, (6aR,9R)—N,N-diethyl-7-propyl-4,6,6a,7,8,9-hexahydroindolo[4,3-fg]quinoline-9-carboxamide] | 96.6% | much lower stability (higher clearance) | 2.3 min | 95.6% | 104% | much lower stability (higher clearance) | 15.1 min | much lower stability (higher clearance) | 97% | 129% | – | – | – | – | – | – | – | – | – | – | half-life (t1/2) (in vitro [3]; [8]): 16.2 min; 5-HT2A arrestin agonist class (5-HT2A receptor [5]): full agonists |
| C=CCN1C[C@H](C(=O)N[C@H](C)CC)C=C2c3cccc4[nH]cc(c34)C[C@H]21 [Compound 8, (6aR,9R)-7-allyl-N—((R)-sec-butyl)-4,6,6a,7,8,9-hexahydroindolo[4,3-fg]quinoline-9-carboxamide] | – | much lower stability (higher clearance) | 3.7 min | 116% | 91.6% | much lower stability (higher clearance) | 7.9 min | much lower stability (higher clearance) | 99.2% | 112% | – | – | – | – | – | – | – | – | – | – | half-life (t1/2) (in vitro [3]; [8]): 7.7 min; 5-HT2A arrestin agonist class (5-HT2A receptor [5]): full agonists |
| CCN(CC)C(=O)[C@@H]1C=C2c3cccc4[nH]cc(c34)C[C@H]2N(CCc2ccccc2OC)C1 [Compound 11, (6aR,9R)—N,N-diethyl-7-(2-methoxyphenethyl)-4,6,6,7,8,9-hexahydroindolo[4,3-fg]quinoline-9-carboxamide] | – | much lower stability (higher clearance) | 0.917 min | – | – | much lower stability (higher clearance) | 2.372 min | much lower stability (higher clearance) | – | – | – | – | – | – | – | – | – | – | – | – | Intrinsic clearance (Clint) (in vitro [1]; [6]): 1512.047 µL/min/mg; 5-HT2B % Act @ Max Dose (5-HT2B receptor; agonist, HEK293, max dose): 2.5%; Intrinsic clearance (Clint) (in vitro [2]; [7]): 584.336 µL/min/mg; Intrinsic clearance (Clint) (in vitro [3]; [8]): 1195.423 µL/min/mg; half-life (t1/2) (in vitro [3]; [8]): 1.159 min; 5-HT2A Arrestin % Act @ Max Dose (5-HT2A receptor [5]; agonist, max dose): 54.26% |
| CCN(CC)C(=O)[C@@H]1C=C2c3cccc4[nH]cc(c34)C[C@H]2N(Cc2ccc(F)cc2)C1 [Compound 49, (6aR,9R)—N,N-diethyl-7-(4-fluorobenzyl)-4,6,6a,7,8,9-hexahydroindolo[4,3-fg]quinoline-9-carboxamide] | 37.9% | – | – | 14.3% | 3.58% | – | – | – | 92.5% | 39.4% | > 10000 nM | > 10000 nM | > 10000 nM | 87.8 µL/min/mg | 15.8 min | 1590 nM | – | – | – | – | EC50 (5-HT2A receptor [5]; agonist): 7.68 nM |
| CCN(CC)C(=O)[C@@H]1C=C2c3cccc4[nH]cc(c34)C[C@H]2N(Cc2ccc(Cl)cc2)C1 [Compound 50, (6aR,9R)-7-(4-chlorobenzyl)-N,N-diethyl-4,6,6a,7,8,9-hexahydroindolo[4,3-fg]quinoline-9-carboxamide] | 41.9% | – | – | 8.23% | 2.94% | – | – | – | 88.2% | 41.2% | > 10000 nM | > 10000 nM | > 10000 nM | 65 µL/min/mg | 21.3 min | 3240 nM | – | – | – | – | EC50 (5-HT2A receptor [5]; agonist): 34.7 nM |
| CCN(CC)C(=O)[C@@H]1C=C2c3cccc4[nH]cc(c34)C[C@H]2N(Cc2ccon2)C1 [Compound 70, (6aR,9R)—N,N-diethyl-7-(isoxazol-3-ylmethyl)-4,6,6a,7,8,9-hexahydroindolo[4,3-fg]quinoline-9-carboxamide] | 17.8% | – | – | 58.6% | 34.4% | – | – | – | 84.7% | – | > 10000 nM | 62300 nM | 449 nM | 54.3 µL/min/mg | 25.5 min | 38 nM | 154 µL/min/mg | 9 min | 47.9 µL/min/mg | 28.9 min | – |
| CCN(CC)C(=O)[C@@H]1C=C2c3cccc4[nH]cc(c34)C[C@H]2N(Cc2cocn2)C1 [Compound 73, (6aR,9R)—N,N-diethyl-7-(oxazol-4-ylmethyl)-4,6,6a,7,8,9-hexahydroindolo[4,3-fg]quinoline-9-carboxamide] | 73.6% | – | – | 78.7% | 60.9% | – | – | – | 92.1% | – | 1370 nM | 586 nM | 375 nM | 45.6 µL/min/mg | 30.4 min | 47.6 nM | 76.7 µL/min/mg | 18.1 min | 51.8 µL/min/mg | 26.8 min | – |
| CCN(CC)C(=O)[C@@H]1C=C2c3cccc4[nH]cc(c34)C[C@H]2N(Cc2cccc(C#N)c2)C1 [Compound 76, (6aR,9R)—N,N-diethyl-7-(3-cyanobenzyl)-4,6,6a,7,8,9-hexahydroindolo[4,3-fg]quinoline-9-carboxamide] | 93.4% | – | – | 77% | 0.93% | – | – | – | 82.1% | – | 1490 nM | 25400 nM | > 10000 nM | 64.1 µL/min/mg | 21.6 min | 6620 nM | 576 µL/min/mg | 2.4 min | 114 µL/min/mg | 12.1 min | – |
| CCN(C)C(=O)[C@@H]1C=C2c3cccc4[nH]cc(c34)C[C@H]2N(Cc2ccccc2)C1 [Compound 85, (6aR,9R)-7-benzyl-N-ethyl-N-methyl-4,6,6a,7,8,9-hexahydroindolo[4,3-fg]quinoline-9-carboxamide] | – | – | – | 36.8% | 3.73% | – | – | – | 60.6% | – | – | > 10000 nM | > 10000 nM | 95 µL/min/mg | 14.6 min | 500 nM | 184 µL/min/mg | 7.5 min | 131 µL/min/mg | 10.5 min | – |
| CC[C@@H](C)NC(=O)[C@@H]1C=C2c3cccc4[nH]cc(c34)C[C@H]2N(C)C1 [Int8] | – | – | – | 90.2% | 17.7% | – | – | – | 96.2% | 46.1% | – | – | – | – | – | – | – | – | – | – | half-life (t1/2) (in vitro [1]; mouse, microsomes, pH 7.4): 39.9 min; half-life (t1/2) (in vitro [2]; human, microsomes, pH 7.4): 64.9 min; half-life (t1/2) (in vitro [3]; rat, microsomes, pH 7.4): 99.5 min; 5-HT2A arrestin agonist class (5-HT2A receptor [5]): partial agonists |
